In patent US20190192697A1, “CHEMICAL PROBES OF LYSYL OXIDASK-LIKE 2 AND USES THEREOF” (PHARMAKEA, INC., priority 2016, published 2019):
Counter-ions that a name gives are not always drawn. Like-named read-outs stand apart in the source and are kept apart here.

Tests used:
LOXL2 [1] = molecular target: T1, LOXL2 (Homo sapiens, UniProt Q9Y4K0); assay: LOXL2 target engagement in plasma of healthy volunteers after single oral dose (Western-based FG bead assay); assay type: in vivo; set-up: from tissue; host or cells: human plasma (donors / healthy volunteers)
T1 sequence (Q9Y4K0 26-774): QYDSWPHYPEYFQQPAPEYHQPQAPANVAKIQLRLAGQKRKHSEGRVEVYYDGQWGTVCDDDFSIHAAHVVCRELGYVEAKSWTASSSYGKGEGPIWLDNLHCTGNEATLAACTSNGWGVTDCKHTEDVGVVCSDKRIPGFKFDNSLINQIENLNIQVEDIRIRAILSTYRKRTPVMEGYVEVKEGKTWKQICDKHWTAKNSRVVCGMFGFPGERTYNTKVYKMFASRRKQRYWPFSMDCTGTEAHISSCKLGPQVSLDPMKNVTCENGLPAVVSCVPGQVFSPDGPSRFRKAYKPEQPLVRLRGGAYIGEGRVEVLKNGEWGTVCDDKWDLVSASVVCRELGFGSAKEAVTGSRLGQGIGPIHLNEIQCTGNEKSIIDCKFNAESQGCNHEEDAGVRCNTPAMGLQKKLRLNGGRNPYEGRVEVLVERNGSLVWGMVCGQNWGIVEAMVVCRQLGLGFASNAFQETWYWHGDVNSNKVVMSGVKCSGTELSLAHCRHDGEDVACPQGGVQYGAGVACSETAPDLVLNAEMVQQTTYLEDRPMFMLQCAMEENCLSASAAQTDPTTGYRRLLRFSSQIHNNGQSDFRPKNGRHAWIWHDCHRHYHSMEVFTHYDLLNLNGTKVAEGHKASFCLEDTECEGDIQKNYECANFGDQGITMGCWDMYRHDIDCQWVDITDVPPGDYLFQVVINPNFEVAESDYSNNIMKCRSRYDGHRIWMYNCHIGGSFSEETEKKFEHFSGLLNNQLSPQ
Experimental: Beads are resuspended to 10 mg/mL in Wash Buffer (20 mM Tris pH 8, 0.2% NP-40, 120 mM NaCl) and 1 mg beads (100 μL) are added to 1-10 mL of plasma, serum or other biological fluid containing LOXL2 and incubated at 37° C. for 0.5-2 hours with rotation. Beads are separated from plasma or other matrix using magnetic separation (for example, DynaMag™-15 Magnet) for 10 minutes at room temperature then the plasma/matrix carefully removed. The beads are resuspended in 1 mL Wash Buffer, vortexed and centrifuged at 4500×g for 5 minutes at room temperature to move all beads to the bottom of the tube. Beads are transferred to a 1.5 mL microfuge tube and washed 3 times with Wash Buffer using magnetic separation (for example, DynaMag™-2 Magnet). After the final wash, beads are resuspended in 40 μL of 1× BOLT® LDS Sample Buffer (Thermo Fisher, Waltham, Mass.) containing 1× BOLT® Sample Reducing Agent (Thermo Fisher, Waltham, Mass.) and incubated for 10 minutes at 90° C. Samples are centrifuged at 10,000×g for 1 minute then magnetically separated using a DynaMag™-2 Magnet for 2 minutes. 40 μL of each supernatant is loaded into one well of a 10 well 4-12% Bis-Tris Plus gel (Thermo Fisher, Waltham, Mass.) and the gels run for 45 minutes at 164 volts in 1×MES SDS Running Buffer (Thermo Fisher, Waltham, Mass.). Gels are transferred to nitrocellulose using iBlot (Thermo Fisher, Waltham, Mass.) according to the manufacturer's recommendation. Blots are incubated in Bullet Blocking One (Nacalai USA, Inc) for 5 minutes at room temperature then incubated overnight at 4° C. with an anti-LOXL2 antibody (for example, R&D Systems goat polyclonal) diluted in Signal Enhancer Solution 1 (Nacalai USA, Inc). Blots are rinsed quickly twice in PBS/0.1% tween-20 then washed 3 times for 10 minutes each in the PBS/tween solution. A secondary infrared dye (IRdye)-conjugated secondary antibody (LI-COR Biosciences, Lincoln, Neb.) diluted in Signal Enhancer 2 (Nacalai USA, Inc) is added to the blot and incubated for 45 minutes-1 hour at room temperature in the dark. Blots are washed as above with PBS/tween then rinsed in PBS before imaging with a LI-COR Odyssey (LI-COR, Lincoln, Neb.).
Healthy human subjects (male and female) were dosed with compound 2 in solution. […] Placebo data is the average of all the placebo subjects in the single dose study (n=10).

LOXL2 [2] = molecular target: T1, LOXL2; assay: Western-based magnetic bead assay for free/unbound LOXL2 in human plasma pre-incubated with compound; assay type: binding; set-up: from tissue; host or cells: human plasma (donors / healthy volunteers); details: 10 mL human plasma, 2 hours at 37° C., capture with FG beads (Compound 1-7)
Experimental: Beads are resuspended to 10 mg/mL in Wash Buffer (20 mM Tris pH 8, 0.2% NP-40, 120 mM NaCl) and 1 mg beads (100 μL) are added to 1-10 mL of plasma, serum or other biological fluid containing LOXL2 and incubated at 37° C. for 0.5-2 hours with rotation. Beads are separated from plasma or other matrix using magnetic separation (for example, DynaMag™-15 Magnet) for 10 minutes at room temperature then the plasma/matrix carefully removed. The beads are resuspended in 1 mL Wash Buffer, vortexed and centrifuged at 4500×g for 5 minutes at room temperature to move all beads to the bottom of the tube. Beads are transferred to a 1.5 mL microfuge tube and washed 3 times with Wash Buffer using magnetic separation (for example, DynaMag™-2 Magnet). After the final wash, beads are resuspended in 40 μL of 1× BOLT® LDS Sample Buffer (Thermo Fisher, Waltham, Mass.) containing 1× BOLT® Sample Reducing Agent (Thermo Fisher, Waltham, Mass.) and incubated for 10 minutes at 90° C. Samples are centrifuged at 10,000×g for 1 minute then magnetically separated using a DynaMag™-2 Magnet for 2 minutes. 40 μL of each supernatant is loaded into one well of a 10 well 4-12% Bis-Tris Plus gel (Thermo Fisher, Waltham, Mass.) and the gels run for 45 minutes at 164 volts in 1×MES SDS Running Buffer (Thermo Fisher, Waltham, Mass.). […]

[3] = Plasma drug concentration in healthy human subjects after single oral dose; assay type: in vivo; details: for concentration at 2 h / concentration at 24 h: both sexes, human, plasma, read-out: Ave plasma Cmpd 2 conc; for concentration at 2 h: 2 hour post-dose
Experimental: The amount of free/unbound LOXL2 was evaluated in 8 mL plasma from six healthy subjects at pre-dose or at 2, 24 or 48 hours after a single oral dose of Compound 1-13A and in two healthy subjects dosed with placebo. On average, the amount of free/unbound LOXL2 was decreased by approximately 60% at 2 hours post-dosing in the subjects receiving 150 mg of Compound 1-13a (see FIG. 7).
Healthy human subjects (male and female) were dosed with compound 2 in solution. Blood samples were drawn at regular intervals and the plasma isolated and analyzed for compound 1-13a concentration as well as LOXL2 target engagement. Placebo data is the average of all the placebo subjects in the single dose study (n=10).

[4] = 150 mg single oral dose, 24 hour post-dose
[5] = 450 mg single oral dose, 24 hour post-dose
[6] = 1000 mg single oral dose, 24 hour post-dose

Q: With NCc1cc(Oc2cccc(C(=O)N3C[C@@H](O)[C@H](F)C3)c2)nc(C(F)(F)F)c1 [Compound 1-13a, (R,R)-trans-(3-((4-(Aminomethyl)-6-(trifluoromethyl)pyridin-2-yl)oxy)phenyl)(3-fluoro-4-hydroxypyrrolidin-1-yl)methanone hydrochloride] as the molecule, how does the “Ave plasma % TE” value (LOXL2 [1]; 150 mg single oral dose, 2 hour post-dose) read?
A: 62%

Q: What about the “average decrease of free/unbound LOXL2 in plasma” value (LOXL2 [1]; 150 mg single oral dose, 2 hours post-dosing, healthy subjects) of the same molecule?
A: approximately 60%

Q: What about the “Ave plasma % TE” value (LOXL2 [1]; [4]) of the same molecule?
A: 20%

Q: And the “Ave plasma % TE” value (LOXL2 [1]; 450 mg single oral dose, 2 hour post-dose)?
A: 78%

Q: What about the “Ave plasma % TE” value (LOXL2 [1]; [5]) of the same molecule?
A: −13%

Q: And the “Ave plasma % TE” value (LOXL2 [1]; 1000 mg single oral dose, 2 hour post-dose)?
A: 92%

Q: What about the “Ave plasma % TE” value (LOXL2 [1]; [6]) of the same molecule?
A: 1%

Q: And the IC50 (LOXL2 [1]; plasma samples of healthy volunteers dosed with compound 1-13a, read-out: IC50 of % target engagement versus plasma concentration)?
A: 905 nM

Q: What about the “decrease of free/unbound LOXL2 relative to vehicle control” value (LOXL2 [2]; 1 μM) of the same molecule?
A: approximately 63%

Q: What about the “decrease of free/unbound LOXL2 relative to vehicle control” value (LOXL2 [2]; 10 μM) of the same molecule?
A: ~100%

Q: And the “Ave plasma Cmpd 2 conc” value [3, 4]?
A: BLOQ

Q: And the concentration at 2 h ([3]; 150 mg single oral dose)?
A: 0.966 µM

Q: And the concentration at 2 h ([3]; 450 mg single oral dose)?
A: 4.38 µM

Q: And the concentration at 24 h [3, 5]?
A: 3.5 nM

Q: And the concentration at 2 h ([3]; 1000 mg single oral dose)?
A: 12.9 µM

Q: And the concentration at 24 h [3, 6]?
A: 8 nM
